In brackets after ≈: the same amount, converted by molar mass.

For the data set the following is noted: buffer; pH 7.4; 200.0 µM.
Take `CCCCOc1c(Br)cc(CNCCCN2CCOCC2)cc1OC.Cl`: the kinetic solubility (commonly solubility judged after dilution from a stock solution rather than from solid) came out at 60.9 µg/mL.
Under `CC1CCC(NC(=O)CSc2nncs2)CC1` (configuration not stated) stands above 40.7 µg/mL.
`COc1ccc2[nH]cc(CCNC(=S)NC3CCCC3)c2c1` came in with a kinetic solubility of 43.6 µg/mL (≈ 137 µM).
Consider `O=C(O)c1ccc(Cl)c(NCc2ccncc2)c1`, for which the solubility (kinetic) is above 39.4 µg/mL.
With `Cc1ccc(S(=O)(=O)C(C#N)=C2N(C)c3ccccc3N2C)cc1`, the kinetic solubility was 7.9 µg/mL (≈ 23.3 µM).
Next, `CCn1cc(CNC(=S)Nc2cccc3ccccc23)cn1`: above 46.6 µg/mL; `CC(=O)Nc1cccc(C(=O)OCN2C(=O)c3ccccc3C2=O)c1`: 9.5 µg/mL (≈ 28.1 µM).
As for `C=CCc1c(C)[nH]c(=O)[nH]c1=O`, the solubility (kinetic) was above 24.9 µg/mL.
On to `COc1ccccc1C(=O)Nc1ccccc1C(=O)Nc1ccccc1`, for which the solubility (kinetic) is below 0.4 µg/mL.
Next, `CCOC(=O)C1CCN(C(=O)COC(=O)/C=C/c2ccc([N+](=O)[O-])cc2)CC1`: 18.7 µg/mL (≈ 47.9 µM); `CC1CCCC(NC(=O)COC(=O)CCC(=O)c2ccc(F)cc2)C1C` (configuration not stated): 11.5 µg/mL (≈ 31.6 µM); `O=C(NCCc1ccc(Cl)cc1)C1CCN(c2ncccn2)CC1`: 6.7 µg/mL (≈ 19.4 µM).
For the compound `O=C(Nc1ccc2nc3n(c(=O)c2c1)CCCC3)c1ccccc1F`, the kinetic solubility is 48 µg/mL (≈ 142 µM).
`CCOC(=O)C1CCCCN1Cc1ccc(-c2ccccc2)cc1` (configuration not stated) returned a solubility (kinetic) of 1.5 µg/mL (≈ 4.64 µM).
In the case of `COc1ccc(OC)c(N2C(=O)CCCC2=O)c1`, the kinetic solubility stood at 24.7 µg/mL (≈ 99.1 µM).
Consider `COCc1nc2oc3ccccc3c(=O)c2cc1C(=O)OC`, for which the kinetic solubility was found to be 19.7 µg/mL (≈ 65.8 µM).
In turn, `CCOC(=O)CN(C#N)c1nc(N(C)C)nc(N(C)C)n1` came in with a kinetic solubility of 17.8 µg/mL (≈ 60.7 µM).
Compound `CC1CCN(CC(C)OC(=O)c2ccco2)CC1.Cl` (configuration not stated) displayed a kinetic solubility above 43.2 µg/mL.
For `Fc1ccc(Nc2nc(-c3ccncc3)cs2)cc1`, the kinetic solubility turned out to be 0.8 µg/mL (≈ 2.95 µM).
Under `CC(=O)c1ccc(S(=O)(=O)N(C)C(C)CCc2ccco2)cc1` (configuration not stated) stands 31.8 µg/mL (≈ 94.8 µM); under `O=C(Nc1ccccc1)c1cc2ccc3ccccc3c2s1`, below 0.6 µg/mL; under `O=C(COc1ccccc1Cl)NC1CC1`, above 33.9 µg/mL.
As to `CC1C2(C)OCC(C#N)(C(=N)O2)C1(C#N)C#N` (configuration not stated), the solubility (kinetic) was above 34.5 µg/mL.
In turn, `NC(=O)COn1c(SCC(N)=O)nc2ccccc2c1=O` had a kinetic solubility above 46.2 µg/mL.
Compound `COc1ccc(NS(=O)(=O)c2cc(NC(=O)c3ccc(S(=O)(=O)N(C)C)cc3)ccc2N2CCOCC2)cc1` showed a solubility (kinetic) of 3.2 µg/mL (≈ 5.57 µM).
`O=C(O)c1ccc(N2C(=O)c3cccc4cccc(c34)C2=O)cc1` returned a solubility (kinetic) above 47.6 µg/mL.
Take `COC(=O)c1scc(S(C)(=O)=O)c1-n1cccc1`: the solubility (kinetic) was 35.2 µg/mL (≈ 123 µM).
Under `CCSC1=C(C#N)C(CC(C)C)C2=C(CCCC2=O)N1` (configuration not stated) stands 41.9 µg/mL (≈ 144 µM); under `CC1CCC(NC(=O)c2ccc(COc3ccccc3)o2)CC1` (configuration not stated), 1.7 µg/mL (≈ 5.42 µM).
Under `COC(=O)c1[nH]c2ccccc2c1CN1CCOCC1` stands above 41.1 µg/mL.
Under `CCOc1ccccc1OCC(=O)Nc1cc(C)on1` stands above 41.4 µg/mL; under `Cc1ccc(CNC(=O)C2COc3ccccc3O2)cc1` (configuration not stated), 20.1 µg/mL (≈ 70.9 µM); under `C=CCn1c(-c2ccccc2)nc(=S)c2c1CCCC2`, above 42.4 µg/mL.
Consider `CCOc1ccc(C(C)=O)cc1COc1cccnc1[N+](=O)[O-]`, for which the kinetic solubility was 6 µg/mL (≈ 19 µM).
In turn, `COc1ccccc1NC(=O)N1CCN(C)CC1` gave a solubility (kinetic) of 30.8 µg/mL (≈ 124 µM).
The compound `Cc1nc2ccc(OC(=O)c3ccccc3)cc2s1` gave a kinetic solubility of 2.9 µg/mL (≈ 10.8 µM).
As to `Cc1ccc2c(c1)C(=O)C(=O)N2CCCOc1ccccc1C`, the solubility (kinetic) was 4.9 µg/mL (≈ 15.8 µM).
Under `COc1ccc(OC)c(/C=N/NC(=O)C(O)c2ccccc2)c1` (configuration not stated) stands above 47.2 µg/mL; under `C=CCNC(=O)COc1ccccc1C#N`, above 32.4 µg/mL; under `Cc1cc(=O)n(Cc2ccccc2)c2c(C)cccc12`, below 0.6 µg/mL.
Next, `C(=Nc1cccc2c(N=Cc3ccco3)cccc12)c1ccco1`: 46.7 µg/mL (≈ 149 µM); `O=C(O)C1CC(=O)N(c2ccc(OCc3ccc(Br)cc3)cc2)C1` (configuration not stated): above 58.5 µg/mL; `Cc1ccc(CSCc2ccc(C(=O)NCC3CCCO3)o2)cc1` (configuration not stated): 39.4 µg/mL (≈ 114 µM).
For `CN1C(=O)C(CCC(N)=O)NC1=S` (configuration not stated), the solubility (kinetic) is 29.1 µg/mL (≈ 145 µM).
`CCOc1ccc(N2CC(C(=O)N3CC(C)OC(C)C3)CC2=O)cc1` (configuration not stated) yielded a solubility (kinetic) above 52 µg/mL.
With `O=C(CSc1ncccc1C(=O)O)NC1CCCCCCC1`, the solubility (kinetic) is 47.3 µg/mL (≈ 147 µM).
Compound `O=C(NCC1CCCO1)c1cc(Br)c(Br)s1` (configuration not stated) came in with a kinetic solubility above 55.4 µg/mL.
In the case of `O=C(N[C@@H](Cc1ccccc1)C(=O)N1CCN(S(=O)(=O)c2ccccc2F)CC1)c1ccco1`, the kinetic solubility was determined as 23.7 µg/mL (≈ 48.8 µM).
Turning to `O=C(O)c1ccc(OCCN2CCCC2=O)cc1`, the solubility (kinetic) was 27.6 µg/mL (≈ 111 µM).
`O=S(=O)(c1cc(F)ccc1F)N1CCN(c2ncnc3ccccc23)CC1`: the kinetic solubility was found to be 56.7 µg/mL (≈ 145 µM).
With `O=c1[nH]c(=S)n(C2CC2)c(O)c1C=NCC1CCCO1` (configuration not stated), the solubility (kinetic) is above 44.3 µg/mL.
Consider `CC(=O)N(CCCN(C)C)c1nc2ccc(C)cc2s1.Cl`, for which the kinetic solubility is above 49.2 µg/mL.

These data come from PubChem BioAssay AID1996.
